Test results published in ChEMBL document CHEMBL4316600, “Electrostatic Complementarity as a Fast and Effective Tool to Optimize Binding and Selectivity of Protein-Ligand Complexes” (J Med Chem, 2019).

Each compound was assayed against Dual specificity mitogen-activated protein kinase kinase 1 (Homo sapiens, UniProt Q02750) (assay: Inhibition of MEK1 (unknown origin)).
Dual specificity mitogen-activated protein kinase kinase 1, sequence (Q02750 whole entry): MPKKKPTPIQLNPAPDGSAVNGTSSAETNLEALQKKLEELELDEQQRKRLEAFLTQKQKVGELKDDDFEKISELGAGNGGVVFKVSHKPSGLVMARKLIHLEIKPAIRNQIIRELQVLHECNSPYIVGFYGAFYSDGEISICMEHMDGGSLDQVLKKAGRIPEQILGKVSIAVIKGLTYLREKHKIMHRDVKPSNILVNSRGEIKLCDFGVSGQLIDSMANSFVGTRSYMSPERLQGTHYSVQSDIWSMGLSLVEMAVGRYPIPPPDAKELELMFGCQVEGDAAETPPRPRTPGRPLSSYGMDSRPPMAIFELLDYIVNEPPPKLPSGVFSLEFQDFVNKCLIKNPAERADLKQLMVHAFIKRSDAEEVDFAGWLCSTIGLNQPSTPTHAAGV
Work on `O=C(NOCCCO)c1ccc(F)c(F)c1Nc1ccc(I)cc1F` yielded an IC50 of 2 nM. With `O=C(NOCCCO)c1ccc(F)c(F)c1Nc1ccc(Br)cc1F` the IC50 was 7.7 nM. Work on `O=C(NOCCCO)c1ccc(F)c(F)c1Nc1ccc(Cl)cc1F` yielded an IC50 of 26 nM. In the case of `O=C(NOCCCO)c1ccc(F)c(F)c1Nc1ccc(F)cc1F`, the IC50 is reported as 120 nM.
